Literature values as cited in patent US20100166856A1, “PHARMACEUTICAL COMPOSITION IN THE FORM OF COATED MICROSPHERES FOR THE MODIFIED RELEASE OF A MUSCLE RELAXANT AND AN NSAID” (LABORATORIOS SENOSIAIN S.A. DE C.V., priority 2006, published 2010).

Tests used:
[1] = after administration
[2] = 22.5 mg of meloxicam
metabolism of tizanidine = conditions: combination of tizanidine with rofecoxib

In the case of `Clc1ccc2nsnc2c1NC1=NCCN1` [tizanidine], the half-life time (after oral administration) is listed as “approximately 2.5 hours”, the excretion in feces (in vivo) is listed as “about 20%” and the excretion in urine (in vivo) is listed as 60%.

In the case of `Cc1cnc(NC(=O)C2=C(O)c3ccccc3S(=O)(=O)N2C)s1` [meloxicam], the “time at which maximum plasma concentration is reached” value [1] is given as 4 to 5 h, the “time of second concentration peak” value ([1]; indicates gastrointestinal re-circulation) is given as 12 to 14 h and the “effect of higher dose” value [2] is given as “only an increase in gastrointestinal adverse effect was observed”.

In the case of `CS(=O)(=O)c1ccc(C2=C(c3ccccc3)C(=O)OC2)cc1` [rofecoxib], the “pharmacokinetic interaction with tizanidine” value (metabolism of tizanidine) is given as “inhibits the metabolism of tizanidine”.
